Results published in BindingDB's records for patent US20250144094 (Erasca, 2025).

Each compound was assayed against T1, Serine/threonine-protein kinase ULK1 [1-649] (UniProt O75385) (assay: ADP Glo Kinase Activity Assay).
T1 construct: 1-649
T1 sequence (O75385 whole entry): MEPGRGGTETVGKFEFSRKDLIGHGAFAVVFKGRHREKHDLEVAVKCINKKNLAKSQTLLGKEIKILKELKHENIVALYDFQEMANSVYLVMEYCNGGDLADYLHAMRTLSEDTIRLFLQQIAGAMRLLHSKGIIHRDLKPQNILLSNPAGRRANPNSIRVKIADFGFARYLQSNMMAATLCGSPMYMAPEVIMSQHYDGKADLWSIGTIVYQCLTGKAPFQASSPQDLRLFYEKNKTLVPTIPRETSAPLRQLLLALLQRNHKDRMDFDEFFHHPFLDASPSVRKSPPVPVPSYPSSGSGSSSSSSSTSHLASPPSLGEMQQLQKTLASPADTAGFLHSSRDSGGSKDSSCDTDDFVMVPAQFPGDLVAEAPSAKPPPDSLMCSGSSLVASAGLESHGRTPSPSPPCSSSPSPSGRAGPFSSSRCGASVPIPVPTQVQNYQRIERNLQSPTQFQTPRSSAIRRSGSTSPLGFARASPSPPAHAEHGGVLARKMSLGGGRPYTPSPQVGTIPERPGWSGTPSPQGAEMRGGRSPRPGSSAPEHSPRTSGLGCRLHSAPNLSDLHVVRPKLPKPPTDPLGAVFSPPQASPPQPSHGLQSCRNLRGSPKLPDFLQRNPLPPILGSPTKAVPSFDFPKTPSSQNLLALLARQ
Experimental: (§1) Table 4: ULK1 inhibitor potency was determined using the luminescent ADP Glo Kinase Assay (Promega), a universal ADP detection system that measures kinase activity by quantifying the amount of ADP produced during a kinase reaction. ULK1 kinase reactions are performed in a standard 96-well microplate (20 μL reaction volume) at 25° C. for 40 minutes in the presence or absence of the test compound (12-point dilution series starting at 10 μM). Addition of peptide substrate and ATP initiates the kinase reaction.The standard ADP Glo assay is performed in two steps. In step one, following the kinase reaction, an equal volume of ADP-Glo™ Reagent (20 μL) is added to terminate the kinase reaction and deplete the remaining ATP. In the second step, the Kinase Detection Reagent (10 μL) is added to simultaneously convert ADP to ATP and allow the newly synthesized ATP to be measured using a luciferase/luciferin reaction. Step two of the ADP Glo assay is performed in a white 384-well plate (20 μL final volume). Thirty minutes after the addition of the Detection reagent, light generated from the luciferase reaction is measured (1 second exposure) using a microplate compatible luminometer (CLARIOstar, BMG Labtech).Inhibition of ULK1 kinase activity is determined for each test compound by comparison to DMSO only control wells. Inhibitor IC50 was calculated by plotting the change in luminescence after 30 minutes (response) versus inhibitor concentration (in log molar) then applying the four-parameter variable slope curve fit (GraphPad Prism).

IC50	Compound
< 5 nM	O=C1c2sc(-c3nc(Nc4cc5c(cc4Cl)CNCC5)ncc3C(F)(F)F)cc2S(=O)(=O)CCN1CC1CC1 [US20250144094, Example 153]
< 5 nM	CN1CCN(c2ccc(Nc3ncc(C(F)(F)F)c(-c4cc5c(s4)C(=O)N(C)CCS5(=O)=O)n3)c(Cl)c2)CC1 [US20250144094, Example 194]
< 5 nM	CCN1CCc2cc(Nc3ncc(C(F)(F)F)c(-c4cc5c(s4)C(=O)N(C4CCC4)CCS5(=O)=O)n3)c(C3CC3)cc2C1 [US20250144094, Example 226]
< 5 nM	CCc1cc2c(cc1Nc1ncc(C(F)(F)F)c(-c3cc4c(s3)C(=O)N(C3COC3)CCS4(=O)=O)n1)CCNC2 [US20250144094, Example 229]
< 5 nM	CCN1CCc2cc(Nc3ncc(C(F)(F)F)c(-c4cc5c(s4)C(=O)N(CC(F)(F)F)CCS5(=O)=O)n3)c(C3CC3)cc2C1 [US20250144094, Example 245]
< 5 nM	O=C1c2sc(-c3nc(Nc4ccc(N5CCN(CC6CC6)CC5)cc4C4CC4)ncc3C(F)(F)F)cc2S(=O)(=O)CCN1C1CC1 [US20250144094, Example 251]
< 5 nM	NC(=O)CN1CCc2cc(Nc3ncc(C(F)(F)F)c(-c4cc5c(s4)C(=O)N(C4CC4)CCS5(=O)=O)n3)c(C3CC3)cc2C1 [US20250144094, Example 278]
7.5 nM	CCc1cc(C2CCNCC2)ccc1Nc1ncc(C(F)(F)F)c(-c2cc3c(s2)C(=O)N(C2CC2)CCS3(=O)=O)n1 [US20250144094, Example 281]
< 5 nM	O=C1c2sc(-c3nc(Nc4cc5c(cc4C4CC4)CN(CCF)CC5)ncc3C(F)(F)F)cc2S(=O)(=O)CCN1C1COC1 [US20250144094, Example 290]
< 5 nM	C[C@@H]1CN(c2ccc(Nc3ncc(C(F)(F)F)c(-c4cc5c(s4)C(=O)N(C)CCS5(=O)=O)n3)c(C3CC3)c2)CCN1 [US20250144094, Example 365]
< 5 nM	CN1CCS(=O)(=O)c2cc(-c3nc(Nc4ccc(N5CC6CC(C5)N6)cc4C4CC4)ncc3C(F)(F)F)sc2C1=O [US20250144094, Example 381]

Each compound was assayed against T2, Serine/threonine-protein kinase ULK1 (Homo sapiens, UniProt O75385) (assay: ADP Glo Kinase Activity Assay).
T2 sequence (O75385 whole entry): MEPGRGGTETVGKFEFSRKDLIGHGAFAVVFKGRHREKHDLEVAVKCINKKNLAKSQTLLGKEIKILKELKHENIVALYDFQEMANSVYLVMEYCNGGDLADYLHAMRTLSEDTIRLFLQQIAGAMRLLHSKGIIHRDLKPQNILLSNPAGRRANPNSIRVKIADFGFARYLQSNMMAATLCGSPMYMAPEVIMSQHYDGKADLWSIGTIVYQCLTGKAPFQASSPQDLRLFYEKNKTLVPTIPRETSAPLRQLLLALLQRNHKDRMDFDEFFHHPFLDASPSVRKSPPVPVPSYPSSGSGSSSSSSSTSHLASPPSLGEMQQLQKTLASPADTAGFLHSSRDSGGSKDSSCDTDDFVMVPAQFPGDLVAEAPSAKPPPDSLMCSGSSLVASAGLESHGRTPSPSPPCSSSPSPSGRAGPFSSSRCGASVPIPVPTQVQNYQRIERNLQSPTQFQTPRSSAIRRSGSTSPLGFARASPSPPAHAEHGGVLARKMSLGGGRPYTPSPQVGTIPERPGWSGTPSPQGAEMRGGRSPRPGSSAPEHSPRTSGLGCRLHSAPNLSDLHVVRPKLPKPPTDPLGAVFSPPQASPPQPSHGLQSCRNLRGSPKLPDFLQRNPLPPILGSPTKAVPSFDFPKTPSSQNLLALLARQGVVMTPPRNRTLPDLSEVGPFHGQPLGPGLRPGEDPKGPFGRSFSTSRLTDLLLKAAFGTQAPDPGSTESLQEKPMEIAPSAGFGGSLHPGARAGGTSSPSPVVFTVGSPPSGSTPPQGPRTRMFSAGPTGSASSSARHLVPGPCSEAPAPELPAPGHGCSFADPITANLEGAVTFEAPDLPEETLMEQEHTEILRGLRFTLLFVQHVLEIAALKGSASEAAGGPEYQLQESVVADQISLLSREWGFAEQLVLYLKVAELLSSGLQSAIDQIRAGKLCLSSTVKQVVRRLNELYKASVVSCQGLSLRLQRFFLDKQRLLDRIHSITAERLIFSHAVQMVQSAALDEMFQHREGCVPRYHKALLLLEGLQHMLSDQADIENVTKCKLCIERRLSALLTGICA
Experimental: as §1, with “3:” for “4:”, “uL” for “μL”, “uM).” for “μM).”, “MBP” for “peptide”, “uL)” for “μL)”, “wells.” for “wells. Inhibitor IC50 was calculated by plotting the change in luminescence after 30 minutes (response) versus inhibitor concentration (in log molar) then applying the four-parameter variable slope curve fit (GraphPad Prism).”

IC50	Compound
< 10 nM	COCCS(=O)(=O)c1csc(-c2nc(Nc3cc4c(cc3C3CC3)CNCC4)ncc2C(F)(F)F)c1 [US20250144094, Example 65]
< 10 nM	CN1Cc2ccc(Nc3ncc(C(F)(F)F)c(-c4cc(S(C)(=O)=O)cs4)n3)cc2C1 [US20250144094, Example 81]
< 10 nM	CN1CCc2cc(Nc3ncc(C(F)(F)F)c(-c4cc(S(C)(=O)=O)cs4)n3)ccc2C1 [US20250144094, Example 106]
< 10 nM	CN1CCN(c2ccc(Nc3ncc(C(F)(F)F)c(-c4cc(S(C)(=O)=O)cs4)n3)c(Cl)c2)CC1 [US20250144094, Example 112]
< 10 nM	CS(=O)(=O)c1csc(-c2nc(Nc3cn(C4CNC4)nc3C3CC3)ncc2C(F)(F)F)c1 [US20250144094, Example 130]
< 10 nM	O=C1NCCS(=O)(=O)c2cc(-c3nc(Nc4cc5c(cc4F)CNCC5)ncc3C(F)(F)F)sc21 [US20250144094, Example 134]
